# Source: ChEMBL document CHEMBL1201862, “PubChem BioAssay data set” (2004)
# Calls of active or inactive are those of the source.
# Experiments:
# [1] = viability of HCT116 lacking mutant beta-catenin – cell-based, human colon tumor, dose response (AID 1045); type: functional;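 further: HCT116 colon tumor cells with beta catenin knocked out; cells exposed to compound for 60 hours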
# [2] = viability of PTEN-deleted HCT116 cells – cell-based, HCT116 PTEN knockout, dose response (AID 1047); type: functional;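 further: HCT116 colon tumor cells with PTEN knocked out; cells exposed to compound for 60 hours before readout; potency for loss of cell viability measured by luminescence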
# [3] = Trypanosoma cruzi growth suppression in host cells – NIH3T3 host cells, beta-gal luminescence, confirmation (AID 2044); type: functional, cell-based;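 further: intracellular parasites grown in NIH/3T3 mouse fibroblasts as host cells; luminescent beta-galactosidase reporter signal from transgenic T. cruzi replicating inside host cells; inhibitors lower the luminescence signal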
# Paired box protein Pax-8 = Paired box protein Pax-8 (Homo sapiens, UniProt Q06710); assay: PAX8 transcriptional activity inhibition in RMG-I – RMG-I cells, luciferase, cherry-pick, dose response (AID 687027); type: functional, cell-based;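 further: luciferase reporter driven by Pax8 target thyroperoxidase promoter measured by SteadyGlo luminescence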
# Sequence of Paired box protein Pax-8 (Q06710 whole entry): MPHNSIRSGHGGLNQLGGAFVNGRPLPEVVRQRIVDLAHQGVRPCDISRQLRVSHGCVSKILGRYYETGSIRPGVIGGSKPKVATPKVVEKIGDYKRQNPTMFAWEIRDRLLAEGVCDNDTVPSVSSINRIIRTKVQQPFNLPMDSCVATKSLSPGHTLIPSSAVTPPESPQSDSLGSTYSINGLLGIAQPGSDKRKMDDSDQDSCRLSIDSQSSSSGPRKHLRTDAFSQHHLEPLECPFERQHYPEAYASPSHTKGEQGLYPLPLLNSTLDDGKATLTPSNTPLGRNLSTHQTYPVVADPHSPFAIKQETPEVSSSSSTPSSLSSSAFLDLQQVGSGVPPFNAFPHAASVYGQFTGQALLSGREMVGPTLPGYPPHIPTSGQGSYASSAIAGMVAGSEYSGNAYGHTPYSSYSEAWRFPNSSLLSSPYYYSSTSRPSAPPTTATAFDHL
# HEK293 = assay: EBV LMP1 TES2 canonical NF-kB signalling blockers – cell-based, HEK293, luciferase, cherry-pick, dose response (AID 588343); type: functional; details: Homo sapiens
# Vero = assay: mammalian cell viability reduction – secondary assay, cytotoxicity control for West Nile virus antiviral project, dose response (AID 1650); type: functional; details: Chlorocebus sabaeus
# INS1 = assay: INS-1E survival protection against cytokine death – cell-based, luminescence, retest, dose response (AID 449756); type: functional; details: Rattus norvegicus;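 further: cell death triggered by IL-1 beta plus TNF-alpha plus IFN-gamma mixture; protective hits raise ATP signal compared with cytokine alone wells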
# [4] = NIH3T3 cell viability loss – ATP luminescence, mouse fibroblasts, counter-screen, dose response (AID 2010); type: functional, cell-based;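 further: cells exposed to compound for about 90 hours before reading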
# [5] = general cell-killing toxicity readout – plate reader, dry powder samples, cytotoxicity control for PAX8 inhibitor project, dose response (AID 743021); type: functional, cell-based
# Ephrin type-A receptor 4 = Ephrin type-A receptor 4 (Mus musculus, UniProt Q03137); assay: EphA4 ligand-binding antagonists – biochemical, colorimetric, mouse EphA4, primary screen (AID 689); type: functional
# Sequence of Ephrin type-A receptor 4 (Q03137 whole entry): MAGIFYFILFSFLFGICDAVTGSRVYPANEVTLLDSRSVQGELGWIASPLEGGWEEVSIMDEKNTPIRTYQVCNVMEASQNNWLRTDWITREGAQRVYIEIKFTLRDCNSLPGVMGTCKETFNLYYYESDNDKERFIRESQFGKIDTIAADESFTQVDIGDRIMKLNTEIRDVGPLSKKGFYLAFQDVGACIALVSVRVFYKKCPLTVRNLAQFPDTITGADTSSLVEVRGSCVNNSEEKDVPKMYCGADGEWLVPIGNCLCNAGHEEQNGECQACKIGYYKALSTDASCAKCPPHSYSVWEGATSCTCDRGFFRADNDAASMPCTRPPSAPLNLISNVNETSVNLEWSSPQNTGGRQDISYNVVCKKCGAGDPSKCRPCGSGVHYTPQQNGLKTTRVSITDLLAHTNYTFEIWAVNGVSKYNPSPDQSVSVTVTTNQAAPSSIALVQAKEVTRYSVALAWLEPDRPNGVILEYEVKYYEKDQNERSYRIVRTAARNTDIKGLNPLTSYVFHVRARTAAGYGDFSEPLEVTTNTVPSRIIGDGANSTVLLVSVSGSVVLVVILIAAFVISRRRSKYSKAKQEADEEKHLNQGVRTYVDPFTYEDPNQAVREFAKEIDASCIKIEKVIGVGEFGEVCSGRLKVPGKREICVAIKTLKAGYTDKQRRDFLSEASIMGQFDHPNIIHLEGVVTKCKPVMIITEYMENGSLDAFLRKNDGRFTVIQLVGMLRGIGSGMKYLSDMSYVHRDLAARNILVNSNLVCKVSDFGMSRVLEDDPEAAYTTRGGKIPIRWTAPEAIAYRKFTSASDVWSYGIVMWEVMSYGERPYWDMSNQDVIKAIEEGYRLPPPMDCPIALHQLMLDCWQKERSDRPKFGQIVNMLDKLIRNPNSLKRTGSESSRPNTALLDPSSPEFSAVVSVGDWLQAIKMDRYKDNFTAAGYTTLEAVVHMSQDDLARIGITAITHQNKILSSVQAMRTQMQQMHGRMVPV
# [6] = biological target: Protein-tyrosine kinase 2-beta (Homo sapiens, UniProt Q14289);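 further: potency of inhibitors of PYK2 kinase phosphorylation of poly-GT substrate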
# Sequence of Protein-tyrosine kinase 2-beta (Q14289 whole entry): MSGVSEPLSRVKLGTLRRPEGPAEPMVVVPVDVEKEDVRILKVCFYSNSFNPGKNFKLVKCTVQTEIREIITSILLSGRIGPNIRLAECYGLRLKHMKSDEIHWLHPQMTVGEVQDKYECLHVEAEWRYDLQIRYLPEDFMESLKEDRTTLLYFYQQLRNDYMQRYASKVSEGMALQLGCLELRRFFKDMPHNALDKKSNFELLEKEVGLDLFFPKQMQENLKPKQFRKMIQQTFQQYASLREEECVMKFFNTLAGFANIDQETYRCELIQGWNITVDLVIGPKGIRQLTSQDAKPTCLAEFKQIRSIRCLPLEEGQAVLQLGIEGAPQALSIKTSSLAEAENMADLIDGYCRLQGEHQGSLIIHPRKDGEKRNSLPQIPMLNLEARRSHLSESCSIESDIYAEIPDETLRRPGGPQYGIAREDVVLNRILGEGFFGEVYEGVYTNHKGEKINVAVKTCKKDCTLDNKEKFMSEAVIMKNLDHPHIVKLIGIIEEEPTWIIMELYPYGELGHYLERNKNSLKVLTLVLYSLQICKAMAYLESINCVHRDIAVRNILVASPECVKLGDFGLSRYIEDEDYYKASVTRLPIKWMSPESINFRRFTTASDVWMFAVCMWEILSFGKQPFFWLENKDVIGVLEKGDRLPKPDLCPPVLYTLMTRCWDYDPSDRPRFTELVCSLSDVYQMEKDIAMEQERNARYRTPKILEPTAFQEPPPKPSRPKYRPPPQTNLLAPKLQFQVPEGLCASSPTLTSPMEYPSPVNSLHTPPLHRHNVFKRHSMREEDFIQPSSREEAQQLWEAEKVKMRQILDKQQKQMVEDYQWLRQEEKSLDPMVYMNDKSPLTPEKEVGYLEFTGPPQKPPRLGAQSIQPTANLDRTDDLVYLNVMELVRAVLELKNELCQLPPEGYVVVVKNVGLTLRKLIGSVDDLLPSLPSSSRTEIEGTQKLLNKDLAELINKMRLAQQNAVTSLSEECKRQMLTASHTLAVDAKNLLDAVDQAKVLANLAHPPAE
compound,measurement,setting,value
CCN(CC)S(=O)(=O)c1cc([N+](=O)[O-])ccc1NNC(=O)Nc1ccc(Cl)c(Cl)c1,EC50,[1],7.99 µM (active)
same,EC50,[2],8.3 µM (active)
same,EC50,[3],2.03 µM (active)
same,AC50,Paired box protein Pax-8,8.91 µM (active)
same,AC50,HEK293,22.9 µM (active)
same,CC50,Vero,14.3 µM (active)
same,AC50,INS1,6.79 µM (active)
same,EC50,[4],> 60 µM (not active)
same,AC50,[5],3.73 µM (active)
Cc1ccc(C2=N/C(=C\c3cccs3)C(=O)N2Nc2ccccc2)cc1,IC50,Ephrin type-A receptor 4,2.91 µM (active)
Cc1n[nH]c(NC=C2C(=O)CC(C)(C)CC2=O)c1-c1ccccc1,IC50,[6],21 µM (not active)
